Holding throughout (set-up): concentration or dose not given beside the values
The target of assay [1] is Human immunodeficiency virus type 1 integrase (Human immunodeficiency virus 1) (UniProt Q7ZJM1). In words: Binding affinity to HIV-1 integrase measured after overnight incubation by chemiluminescence analysis relative to IN 118-128.
In assay [2] the test system is Human immunodeficiency virus 1. In words: Binding affinity to HLT-tagged HIV-1 Rev measured after overnight incubation by chemiluminescence analysis relative to IN 118-128.
Assay [3] addresses Human immunodeficiency virus type 1 integrase (Human immunodeficiency virus 1) (UniProt Q7ZJM1). In words: Binding affinity to HIV-1 integrase measured after overnight incubation by chemiluminescence analysis relative to IN 174-188.
Assay [4] concerns Human immunodeficiency virus 1. In words: Binding affinity to HLT-tagged HIV-1 Rev measured after overnight incubation by chemiluminescence analysis relative to IN 174-188.

The structures appear in SMILES notation. Square brackets hold non-standard residues; d marks the D form. Peptide text beside a SMILES is read from it. NMeT = CN[C@H](C(=O)O)[C@@H](C)O; NMeM = CN[C@@H](CCSC)C(=O)O; NMeV = CN[C@H](C(=O)O)C(C)C; NMeA = CN[C@@H](C)C(=O)O

Human immunodeficiency virus type 1 integrase (Human immunodeficiency virus 1), sequence (Q7ZJM1 as listed by the source): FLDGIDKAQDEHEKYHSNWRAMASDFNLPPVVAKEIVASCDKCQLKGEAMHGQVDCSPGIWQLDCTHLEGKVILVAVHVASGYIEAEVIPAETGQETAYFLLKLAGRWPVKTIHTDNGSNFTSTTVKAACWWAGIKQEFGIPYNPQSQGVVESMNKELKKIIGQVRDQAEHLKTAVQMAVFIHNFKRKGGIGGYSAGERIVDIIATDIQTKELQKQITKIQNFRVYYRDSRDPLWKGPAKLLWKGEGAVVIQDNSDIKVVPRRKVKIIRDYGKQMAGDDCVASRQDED

For `CC(C)[C@@H](NC(=O)[C@@H](NC(=O)[C@@H](NC(=O)[C@H](CO)NC(=O)[C@@H](NC(=O)[C@H](Cc1ccccc1)NC(=O)[C@H](CC(N)=O)NC(=O)[C@H](CO)NC(=O)CN)[C@@H](C)O)[C@@H](C)O)[C@@H](C)O)C(=O)N[C@@H](CCCCN)C(=O)N[C@@H](C)C(=O)O`, the Activity was 97% in assay [1] and 107% in assay [2].
The corresponding values for `CC(C)[C@H](NC(=O)[C@@H](NC(=O)[C@@H](NC(=O)[C@@H](CO)NC(=O)[C@@H](NC(=O)[C@H](Cc1ccccc1)NC(=O)[C@H](CC(N)=O)NC(=O)[C@H](CO)NC(=O)CN)[C@@H](C)O)[C@@H](C)O)[C@@H](C)O)C(=O)N[C@@H](CCCCN)C(=O)N[C@@H](C)C(=O)O` are 92% and 124%.
On the same counts, the results for `CC(C)[C@H](NC(=O)[C@@H](NC(=O)[C@@H](NC(=O)[C@H](CO)NC(=O)[C@@H](NC(=O)[C@@H](Cc1ccccc1)NC(=O)[C@H](CC(N)=O)NC(=O)[C@H](CO)NC(=O)CN)[C@@H](C)O)[C@@H](C)O)[C@@H](C)O)C(=O)N[C@@H](CCCCN)C(=O)N[C@@H](C)C(=O)O` are 229% and 211%.
Consider `CC(C)[C@H](NC(=O)[C@@H](NC(=O)[C@@H](NC(=O)[C@H](CO)NC(=O)[C@@H](NC(=O)[C@H](Cc1ccccc1)NC(=O)[C@@H](CC(N)=O)NC(=O)[C@H](CO)NC(=O)CN)[C@@H](C)O)[C@@H](C)O)[C@@H](C)O)C(=O)N[C@@H](CCCCN)C(=O)N[C@@H](C)C(=O)O`, for which the results for the Activity in assay [1] and in assay [2] were 133% and 144%, respectively.
On the same counts, the results for `CC(C)[C@H](NC(=O)[C@@H](NC(=O)[C@@H](NC(=O)[C@H](CO)NC(=O)[C@@H](NC(=O)[C@H](Cc1ccccc1)NC(=O)[C@H](CC(N)=O)NC(=O)[C@@H](CO)NC(=O)CN)[C@@H](C)O)[C@@H](C)O)[C@@H](C)O)C(=O)N[C@@H](CCCCN)C(=O)N[C@@H](C)C(=O)O` are 346% and 190%.
The corresponding values for `CC(C)[C@H](NC(=O)[C@@H](NC(=O)[C@@H](NC(=O)[C@H](CO)NC(=O)[C@@H](NC(=O)[C@H](Cc1ccccc1)NC(=O)[C@H](CC(N)=O)NC(=O)[C@H](CO)NC(=O)CN)[C@@H](C)O)[C@@H](C)O)[C@@H](C)O)C(=O)N[C@@H](CCCCN)C(=O)N[C@H](C)C(=O)O` are 136% and 137%.
On the same counts, the results for `CC(C)[C@H](NC(=O)[C@@H](NC(=O)[C@@H](NC(=O)[C@H](CO)NC(=O)[C@@H](NC(=O)[C@H](Cc1ccccc1)NC(=O)[C@H](CC(N)=O)NC(=O)[C@H](CO)NC(=O)CN)[C@@H](C)O)[C@@H](C)O)[C@@H](C)O)C(=O)N[C@H](CCCCN)C(=O)N[C@@H](C)C(=O)O` are 109% and 53%.
For `CC(C)[C@H](NC(=O)[C@@H](NC(=O)[C@@H](NC(=O)[C@H](CO)NC(=O)[C@H](NC(=O)[C@H](Cc1ccccc1)NC(=O)[C@H](CC(N)=O)NC(=O)[C@H](CO)NC(=O)CN)[C@@H](C)O)[C@@H](C)O)[C@@H](C)O)C(=O)N[C@@H](CCCCN)C(=O)N[C@@H](C)C(=O)O`, the Activity in assay [1] came to 58%; in assay [2] it was 52%.
As to `CC(C)[C@H](NC(=O)[C@@H](NC(=O)[C@H](NC(=O)[C@H](CO)NC(=O)[C@@H](NC(=O)[C@H](Cc1ccccc1)NC(=O)[C@H](CC(N)=O)NC(=O)[C@H](CO)NC(=O)CN)[C@@H](C)O)[C@@H](C)O)[C@@H](C)O)C(=O)N[C@@H](CCCCN)C(=O)N[C@@H](C)C(=O)O`, the Activity in assay [1] came to 150%; in assay [2], 176%.
As to `CC(C)[C@H](NC(=O)[C@H](NC(=O)[C@@H](NC(=O)[C@H](CO)NC(=O)[C@@H](NC(=O)[C@H](Cc1ccccc1)NC(=O)[C@H](CC(N)=O)NC(=O)[C@H](CO)NC(=O)CN)[C@@H](C)O)[C@@H](C)O)[C@@H](C)O)C(=O)N[C@@H](CCCCN)C(=O)N[C@@H](C)C(=O)O`, the Activity in assay [1] amounted to 85%; in assay [2], 60%.
On the same counts, the results for `CC(C)[C@H](NC(=O)[C@@H](NC(=O)[C@@H](NC(=O)[C@H](CO)NC(=O)[C@@H](NC(=O)[C@H](Cc1ccccc1)NC(=O)[C@H](CC(N)=O)NC(=O)[C@H](CO)NC(=O)[C@H](C)N)[C@@H](C)O)[C@@H](C)O)[C@@H](C)O)C(=O)N[C@@H](CCCCN)C(=O)N[C@@H](C)C(=O)O` (H-ASNFTSTTVKA-OH) are 116% and 77%.
The corresponding values for `CC(C)[C@H](NC(=O)[C@@H](NC(=O)[C@@H](NC(=O)[C@H](CO)NC(=O)[C@@H](NC(=O)[C@@H](N)Cc1ccccc1)[C@@H](C)O)[C@@H](C)O)[C@@H](C)O)C(=O)N[C@@H](CCCCN)C(=O)N[C@@H](C)C(=O)O` (H-FTSTTVKA-OH) are 236% and 280%.
The corresponding values for `CC(C)[C@H](NC(=O)[C@@H](NC(=O)[C@@H](NC(=O)[C@H](CO)NC(=O)[C@@H](NC(=O)[C@H](Cc1ccccc1)NC(=O)[C@H](CC(N)=O)NC(=O)[C@H](C)NC(=O)CN)[C@@H](C)O)[C@@H](C)O)[C@@H](C)O)C(=O)N[C@@H](CCCCN)C(=O)N[C@@H](C)C(=O)O` (H-GANFTSTTVKA-OH) are 177% and 146%.
Consider `CC(C)[C@H](NC(=O)[C@@H](NC(=O)[C@@H](NC(=O)[C@H](CO)NC(=O)[C@@H](NC(=O)[C@H](Cc1ccccc1)NC(=O)[C@H](C)NC(=O)[C@H](CO)NC(=O)CN)[C@@H](C)O)[C@@H](C)O)[C@@H](C)O)C(=O)N[C@@H](CCCCN)C(=O)N[C@@H](C)C(=O)O` (H-GSAFTSTTVKA-OH), for which the values for the Activity in assay [1] and in assay [2] were 198% and 151%, respectively.
Turning to `CC[C@H](C)[C@H](NC(=O)[C@H](Cc1ccccc1)NC(=O)[C@H](C(C)C)N(C)C(=O)[C@H](C)NC(=O)[C@H](CCSC)NC(=O)[C@H](CCC(N)=O)NC(=O)[C@@H](NC(=O)[C@H](C)NC(=O)[C@@H](N)[C@@H](C)O)C(C)C)C(=O)N[C@@H](Cc1cnc[nH]1)C(=O)N[C@@H](CC(N)=O)C(=O)N[C@@H](Cc1ccccc1)C(=O)N[C@@H](CCCCN)C(=O)N[C@@H](CCCNC(=N)N)C(=O)N[C@@H](CCCCN)C(=O)O` (H-TAVQMA[NMeV]FIHNFKRK-OH), the Activity in assay [3] is 67%; in assay [4] it was 55%.
On the same counts, the results for `CC[C@H](C)[C@H](NC(=O)[C@H](Cc1ccccc1)NC(=O)[C@@H](NC(=O)[C@H](C)N(C)C(=O)[C@H](CCSC)NC(=O)[C@H](CCC(N)=O)NC(=O)[C@@H](NC(=O)[C@H](C)NC(=O)[C@@H](N)[C@@H](C)O)C(C)C)C(C)C)C(=O)N[C@@H](Cc1cnc[nH]1)C(=O)N[C@@H](CC(N)=O)C(=O)N[C@@H](Cc1ccccc1)C(=O)N[C@@H](CCCCN)C(=O)N[C@@H](CCCNC(=N)N)C(=O)N[C@@H](CCCCN)C(=O)O` (H-TAVQM[NMeA]VFIHNFKRK-OH) are 99% and 66%.
On the same counts, the results for `CC[C@H](C)[C@H](NC(=O)[C@H](Cc1ccccc1)NC(=O)[C@@H](NC(=O)[C@H](C)NC(=O)[C@H](CCSC)N(C)C(=O)[C@H](CCC(N)=O)NC(=O)[C@@H](NC(=O)[C@H](C)NC(=O)[C@@H](N)[C@@H](C)O)C(C)C)C(C)C)C(=O)N[C@@H](Cc1cnc[nH]1)C(=O)N[C@@H](CC(N)=O)C(=O)N[C@@H](Cc1ccccc1)C(=O)N[C@@H](CCCCN)C(=O)N[C@@H](CCCNC(=N)N)C(=O)N[C@@H](CCCCN)C(=O)O` (H-TAVQ[NMeM]AVFIHNFKRK-OH) are 103% and 134%.
On the same counts, the results for `CC[C@H](C)[C@H](NC(=O)[C@H](Cc1ccccc1)NC(=O)[C@@H](NC(=O)[C@H](C)NC(=O)[C@H](CCSC)NC(=O)[C@H](CCC(N)=O)NC(=O)[C@H](C(C)C)N(C)C(=O)[C@H](C)NC(=O)[C@@H](N)[C@@H](C)O)C(C)C)C(=O)N[C@@H](Cc1cnc[nH]1)C(=O)N[C@@H](CC(N)=O)C(=O)N[C@@H](Cc1ccccc1)C(=O)N[C@@H](CCCCN)C(=O)N[C@@H](CCCNC(=N)N)C(=O)N[C@@H](CCCCN)C(=O)O` (H-TA[NMeV]QMAVFIHNFKRK-OH) are 118% and 110%.
Take `CC[C@H](C)[C@H](NC(=O)[C@H](Cc1ccccc1)NC(=O)[C@@H](NC(=O)[C@H](C)NC(=O)[C@H](CCSC)NC(=O)[C@H](CCC(N)=O)NC(=O)[C@@H](NC(=O)[C@H](C)N(C)C(=O)[C@@H](N)[C@@H](C)O)C(C)C)C(C)C)C(=O)N[C@@H](Cc1cnc[nH]1)C(=O)N[C@@H](CC(N)=O)C(=O)N[C@@H](Cc1ccccc1)C(=O)N[C@@H](CCCCN)C(=O)N[C@@H](CCCNC(=N)N)C(=O)N[C@@H](CCCCN)C(=O)O` (H-T[NMeA]VQMAVFIHNFKRK-OH): the Activity came out at 75% in assay [3] and 86% in assay [4].
On the same counts, the results for `CC[C@H](C)[C@H](NC(=O)[C@H](Cc1ccccc1)NC(=O)[C@@H](N)C(C)C)C(=O)N[C@@H](Cc1cnc[nH]1)C(=O)N[C@@H](CC(N)=O)C(=O)N[C@@H](Cc1ccccc1)C(=O)N[C@@H](CCCCN)C(=O)N[C@@H](CCCNC(=N)N)C(=O)N[C@@H](CCCCN)C(=O)O` (H-VFIHNFKRK-OH) are 132% and 86%.
On the same counts, the results for `CC[C@H](C)[C@H](NC(=O)[C@H](Cc1ccccc1)NC(=O)[C@@H](NC(=O)[C@H](C)NC(=O)[C@H](CCSC)NC(=O)[C@H](CCC(N)=O)NC(=O)[C@@H](N)C(C)C)C(C)C)C(=O)N[C@@H](Cc1cnc[nH]1)C(=O)N[C@@H](CC(N)=O)C(=O)N[C@@H](Cc1ccccc1)C(=O)N[C@@H](CCCCN)C(=O)N[C@@H](CCCNC(=N)N)C(=O)N[C@@H](CCCCN)C(=O)O` (H-VQMAVFIHNFKRK-OH) are 133% and 104%.
The corresponding values for `CC[C@H](C)[C@H](NC(=O)[C@H](Cc1ccccc1)NC(=O)[C@@H](NC(=O)[C@H](C)NC(=O)[C@H](CCSC)NC(=O)[C@H](CCC(N)=O)NC(=O)[C@@H](NC(=O)[C@H](C)NC(=O)[C@@H](NC)[C@@H](C)O)C(C)C)C(C)C)C(=O)N[C@@H](Cc1cnc[nH]1)C(=O)N[C@@H](CC(N)=O)C(=O)N[C@@H](Cc1ccccc1)C(=O)N[C@@H](CCCCN)C(=O)N[C@@H](CCCNC(=N)N)C(=O)N[C@@H](CCCCN)C(=O)O` (H-[NMeT]AVQMAVFIHNFKRK-OH) are 84% and 93%.

The values are drawn from ChEMBL document CHEMBL3217454, “Structureactivity relationship studies using peptide arrays: the example of HIV-1 Revintegrase interaction” (Medchemcomm, 2013).
